{
  "source": "paper PMC10354055",
  "about": "“An optimized Nurr1 agonist provides disease-modifying effects in Parkinson’s disease models” (Nature Communications, 2023)",
  "key": {"[1]": {"target": "T1, Nurr1-LBD (Mus musculus, UniProt Q06219)", "T1 construct": "transfected with pCMV-fNurr1, pGAL-Nurr1(LBD), pGAL-Nor1(LBD) or pGAL-Nur77(LBD) and reporter construct; expressed in transfected cells; host or cells: SK-N-BE(2)C (human neuroblastoma), N27-A (rat dopaminergic), MN9D (murine dopaminergic)", "T1 sequence (Q06219 360-595 limits assumed)": "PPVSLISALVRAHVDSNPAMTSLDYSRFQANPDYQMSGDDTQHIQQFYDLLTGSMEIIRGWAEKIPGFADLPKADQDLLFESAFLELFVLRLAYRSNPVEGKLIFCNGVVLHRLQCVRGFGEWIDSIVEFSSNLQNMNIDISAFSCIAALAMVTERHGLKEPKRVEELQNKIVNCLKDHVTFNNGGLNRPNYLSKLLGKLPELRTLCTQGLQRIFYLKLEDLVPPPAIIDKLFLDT", "assay": "Luciferase reporter assay, Nurr1-LBD, N27-A cells", "format": "cell-based", "details": "Supplementary Fig. 1d,e", "description": "Nurr1 transactivity was normalized to β-galactosidase activity."}, "[2]": {"system": "MN9D cells", "assay": "Cell viability, MTT reduction, MPP+-treated MN9D cells", "format": "cell-based, mouse", "procedure": "Cell viability was determined using 3-(4,5-dimethylthiazol-2-yl)-2,5-diphenyltetrazolium bromide (MTT) as previously described[60]. Briefly, cells were incubated with 5 mg/ml of MTT (Sigma-Aldrich) solution for 3.5 h at 37 °C. MTT formazan crystals were dissolved in 10 times the volume of MTT solvent (4 mM HCl and 0.1% Nonidet P-40 in isopropanol) and the absorbance from the generated blue formazan was measured at 570 nm after 15 min incubation at room temperature. Cell viability was calculated as a percentage (%) of MTT reduction relative to vehicle control."}, "[3]": {"system": "MN9D cells", "assay": "Cytotoxicity, LDH release, MPP+-treated MN9D cells", "format": "cell-based, mouse", "method": "Cells were transfected with Nurr1 subcloned into pcDNA3.1 vector[23] for Nurr1 overexpression (OE). […] Nurr1 OE or KD by transfection was analyzed by Western blot.\nCellular oxidative stress was detected using the DCFDA Cellular ROS Assay Kit (Abcam) according to the manufacturer’s protocol. Briefly, cells seeded in black clear bottom 96 well plate were stained with DCFDA solution (20 µM) for 45 min at 37 °C. […] Cytotoxicity was determined by measuring lactate dehydrogenase (LDH) release into the culture medium using a LDH cytotoxicity detection kit (Roche)[33]. Absorbance was measured at 490 nm with a microplate reader and cytotoxicity was calculated as a percentage (%) relative to 1% TritonX-100 control. Cell viability was determined using 3-(4,5-dimethylthiazol-2-yl)-2,5-diphenyltetrazolium bromide (MTT) as previously described. Briefly, cells were incubated with 5 mg/ml of MTT (Sigma-Aldrich) solution for 3.5 h at 37 °C. MTT formazan crystals were dissolved in 10 times the volume of MTT solvent (4 mM HCl and 0.1% Nonidet P-40 in isopropanol) and the absorbance from the generated blue formazan was measured at 570 nm after 15 min incubation at room temperature. Cell viability was calculated as a percentage (%) of MTT reduction relative to vehicle control."}, "[4]": {"system": "MPTP-induced male mice", "assay": "Cylinder test, MPTP-induced PD model mice", "format": "in vivo, mouse", "details": "Figure 4d; MPTP-induced mice; individual animal values", "method": "(§1) MPTP (Sigma-Aldrich) was intraperitoneally (i.p.) injected (30 mg/kg) for 5 days (Day 1-5). […] To test dyskinetic involuntary behavior, an L-DOPA injected group was included, which received 50 mg/kg of L-DOPA and 15 mg/kg of benserazide (Sigma-Aldrich) (i.p.) for 16 days (Day 1–16). All compounds were administered 6 h post-MPTP injection to avoid any effect of compounds on the MPTP metabolism in the brain. Motor and non-motor related behavior tests were performed on the following days as described in Fig. 4a in an assessor- and observer-blinded fashion. Pre-training and baseline setup for motor-related behaviors were performed 3 days prior to the injections. Mice were sacrificed and subjected to immunohistochemistry. Mice were housed at the Animal Care Facilities of McLean Hospital under a 12-h light/12-h dark cycle, ambient temperature and humidity. Animals were handled in accordance with McLean Hospital’s Institutional Animal Care and Use Committee (Protocol #: 2015N000002) and followed National Institutes of Health guidelines.\n(§2) Mice were placed in a transparent plastic cylinder (15.5 cm high, 12.7 cm diameter) with a mirror behind it. Spontaneous activity was recorded and measured as counting the number of rearing events for 3 min session. A rear was considered only when the mouse touched the wall of the cylinder with its forelimb paws while standing on its hindlimbs (vertical movement) to count meaningful physiological movements."}, "[5]": {"system": "MPTP-induced male mice", "assay": "Dopamine ELISA in SN and STR, MPTP-induced mice", "format": "in vivo, mouse", "details": "for DA: individual animals", "method": "as §1\n(§3) For MPTP-induced mice, the left hemisphere of each group (n = 5) was used for analysis and compared to the vehicle-treated group (VEH). For AAV-αSyn-injected mouse model, the viral vector injected side (left hemisphere; ipsilateral) of each group (n = 3) was compared to the non-injected side (right hemisphere; contralateral)."}, "[6]": {"system": "AAV-αSyn-induced male mice", "assay": "Cylinder test, AAV-αSyn-induced PD model mice", "format": "in vivo, mouse", "details": "αSynWT and αSynA53T mice; CQ 40, 4A7C-301 5 mg/kg/day i.p.", "description": "(§4) Adeno-associated viruses (AAVs) expressing GFP only or αSyn (wild-type or A53T) were kindly provided by Dr. Yoon Seong Kim from the University of Central Florida. Recombinant AAV vectors were produced using modified pAAV-IRES-hrGFP (Agilent) to express wild-type and mutant human αSyn under control of the CMV promoter. Viral particles (AAV2) were produced at the University of Iowa Viral Vector Core according to standard operating procedures (https://medicine.uiowa.edu/vectorcore/). […] AAV vectors were delivered into the substantia nigra unilaterally by stereotaxic surgery.\nas §2"}, "[7]": {"system": "AAV-αSyn-induced male mice", "assay": "IHC/stereology of TH+ and NeuN+ neurons and TH+ fibers, AAV-αSyn-induced mice", "format": "in vivo, mouse", "details": "αSynWT-mice", "description": "as §4\nImages were acquired using a KEYENCE microscope and quantified as the number or optical density of immunoreactive cells using ImageJ software.\nThe numbers of TH^+ DA neurons, NeuN^+ neurons, pS129 αSyn^+ cells in the SN and Iba-1^+ microglia in the SN and striatum were stereologically counted in six coronal sections (30 µm thickness) taken every 6th section (180 µm intervals) for each brain. The boundaries of the SN and striatum were delimited at low magnification (4X) to estimate each total area. Immunoreactive cells were counted with images taken at high magnification (×40) by a single blinded investigator. The group mean of the total number of immunoreactive cells from each brain was transformed as percentage of the number in the control group (%). For AAV-αSyn-induced mice, the group mean of the total number of cells in the ipsilateral side was transformed as a percentage of that observed in the contralateral side."}, "[8]": {"system": "AAV-αSyn-induced male mice", "assay": "Dopamine ELISA in SN and STR, AAV-αSyn-injected mice", "format": "in vivo, mouse", "description": "as §4, §3"}},
  "note": "“And” between values parts separate entries of the source, which are not always exact repeats. Equal entries are not always repeated.",
  "data": [
    {"smiles": "CCN(CC)CCCC(C)Nc1ccnc2cc(Cl)ccc12", "note": "(centres unmarked) [CQ, chloroquine]", "values": [
      {"measurement": "EC50", "setting": "[1]", "result": "~10", "unit": "µM"},
      {"measurement": "MTT reduction (%)", "setting": "[2]; Fig. S3c, with MPP+, 1 µM", "result": "53.8043% and 53.2609% and 51.6304%"},
      {"measurement": "MTT reduction (%)", "setting": "[2]; Fig. S3c, with MPP+, 5 µM", "result": "55.4348% and 56.5217%"},
      {"measurement": "MTT reduction (%)", "setting": "[2]; Fig. S3c, with MPP+, 10 µM", "result": "57.6087% and 55.9783% and 57.0652%"},
      {"measurement": "MTT reduction (%)", "setting": "[2]; Fig. S3c, with MPP+, 50 µM", "result": "61.413% and 59.7826%"},
      {"measurement": "MTT reduction (%)", "setting": "[2]; Fig. S3c, with MPP+, 100 µM", "result": "62.5% and 61.413% and 64.6739%"},
      {"measurement": "MTT reduction (%)", "setting": "[2]; Fig. S3e, MPP+, Control, CQ 100 µM, 4A7C-301 1 µM", "result": "62.8947% and 66.3158% and 61.0526% and 60.2632%"},
      {"measurement": "MTT reduction (%)", "setting": "[2]; Fig. S3e, MPP+, Nurr1 KD, CQ 100 µM, 4A7C-301 1 µM", "result": "34.7368% and 29.4737% and 30.7895% and 32.6316%"},
      {"measurement": "MTT reduction (%)", "setting": "[2]; Fig. S3e, MPP+, Nurr1 OE, CQ 100 µM, 4A7C-301 1 µM", "result": "86.0526% and 90.2105% and 84.3158% and 89.4737%"},
      {"measurement": "LDH release (%)", "setting": "[3]; Fig. S3f, MPP+, Control, CQ 100 µM, 4A7C-301 1 µM", "result": "40.5948% and 42.0584% and 38.5456% and 42.2156%"},
      {"measurement": "LDH release (%)", "setting": "[3]; Fig. S3f, MPP+, Nurr1 KD, CQ 100 µM, 4A7C-301 1 µM", "result": "55.6098% and 56.4684%"},
      {"measurement": "LDH release (%)", "setting": "[3]; Fig. S3f, MPP+, Nurr1 OE, CQ 100 µM, 4A7C-301 1 µM", "result": "26.1572% and 27.9568% and 27.0629%"},
      {"measurement": "LDH release (%)", "setting": "[3]; Fig. S3d, with MPP+, 1 µM", "result": "41.5124% and 43.1347% and 42.8643%"},
      {"measurement": "LDH release (%)", "setting": "[3]; Fig. S3d, with MPP+, 5 µM", "result": "41.2806% and 41.8214% and 41.3965%"},
      {"measurement": "LDH release (%)", "setting": "[3]; Fig. S3d, with MPP+, 10 µM", "result": "39.6197% and 38.7699% and 40.5081%"},
      {"measurement": "LDH release (%)", "setting": "[3]; Fig. S3d, with MPP+, 50 µM", "result": "38.5767% and 38.7312% and 38.1518%"},
      {"measurement": "LDH release (%)", "setting": "[3]; Fig. S3d, with MPP+, 100 µM", "result": "37.1862% and 37.0703% and 38.1905%"},
      {"measurement": "Number of rearing", "setting": "[4]", "result": "9 and 22 and 80 and 21 and 16 and 37 and 89 and 30 and 61"},
      {"measurement": "DA levels in the SN (in words)", "setting": "[5]", "result": "did so only in the SN"},
      {"measurement": "DA levels in the STR (in words)", "setting": "[5]", "result": "only in the SN"},
      {"measurement": "DA", "setting": "[5]; Supplementary Figure S10b", "result": "49.362 pg/mL and 39.048 pg/mL and 57.173 pg/mL and 55.478 pg/mL and 57.153 pg/mL"},
      {"measurement": "DA", "setting": "[5]; Supplementary Figure S10c", "result": "418.063 pg/mL and 471.117 pg/mL and 318.027 pg/mL and 389.411 pg/mL and 268.088 pg/mL"},
      {"measurement": "motor deficits, cylinder test (rearing) (in words)", "setting": "[6]", "result": "partial recovery"},
      {"measurement": "loss of TH+ and NeuN+ neurons and TH+ fibers (in words)", "setting": "[7]", "result": "partially prevented"},
      {"measurement": "DA level (% of contralateral side)", "setting": "[8]; Supplementary Figure S10e, αSynA53T", "result": "32.648 % of contralateral side and 32.350 % of contralateral side and 33.119 % of contralateral side"},
      {"measurement": "DA level (% of contralateral side)", "setting": "[8]; Supplementary Figure S10e, αSynWT", "result": "73.112 % of contralateral side and 72.962 % of contralateral side and 71.012 % of contralateral side"},
      {"measurement": "DA level (% of contralateral side)", "setting": "[8]; Supplementary Figure S10f, αSynA53T", "result": "33.096 % of contralateral side and 33.011 % of contralateral side and 33.320 % of contralateral side"},
      {"measurement": "DA level (% of contralateral side)", "setting": "[8]; Supplementary Figure S10f, αSynWT", "result": "70.155 % of contralateral side and 68.851 % of contralateral side and 68.899 % of contralateral side"},
      {"measurement": "DA levels in the SN and STR (in words)", "setting": "[8]; αSynWT-mice", "result": "significantly increased"}
    ]}
  ]
}
